Holding throughout (assay): relative viability (nuclei count vs DMSO), 5 days (fraction); higher = more cells survive
Compound in experiment [1]: C1COCCN1CC2=CC(=O)C(=CO2)OCCCCCSC3=C4C=CC(=CC4=NC=C3)C(F)(F)F [EHT 1864] + Nc1nc2[nH]cc(CCc3ccc(C(=O)N[C@@H](CCC(=O)O)C(=O)O)cc3)c2c(=O)[nH]1 [Pemetrexed] (partner 0.2 µM)
The method in brief: (§1)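 Lung cancer cell lines were pin-tool dosed in 1536-well plates on the day after seeding, with either a lone drug or a fixed anchor-drug dose plus five library-drug doses (not always all listed) in √10 steps. Nuclei were counted on 4× images after 5 days. Relative viability is the ratio of treated-well to vehicle-well nuclei counts, with each value a median of duplicate plates.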

Compound in experiment [2]: C1COCCN1CC2=CC(=O)C(=CO2)OCCCCCSC3=C4C=CC(=CC4=NC=C3)C(F)(F)F [EHT 1864] + CC1(C)CCC(c2ccc(Cl)cc2)=C(CN2CCN(c3ccc(C(=O)NS(=O)(=O)c4ccc(N[C@H](CCN5CCOCC5)CSc5ccccc5)c(S(=O)(=O)C(F)(F)F)c4)cc3)CC2)C1 [Navitoclax] (partner 0.5 µM)
Summed up: as §1

Compound in experiment [3]: C1COCCN1CC2=CC(=O)C(=CO2)OCCCCCSC3=C4C=CC(=CC4=NC=C3)C(F)(F)F [EHT 1864] + CC(=O)Nc1cccc(-n2c(=O)n(C3CC3)c(=O)c3c(Nc4ccc(I)cc4F)n(C)c(=O)c(C)c32)c1 [Trametinib] (partner 0.02 µM)
The method in brief:
as §1

Compound in experiment [4]: C1COCCN1CC2=CC(=O)C(=CO2)OCCCCCSC3=C4C=CC(=CC4=NC=C3)C(F)(F)F [EHT 1864] + N=C(N)NC(=N)NCCc1ccccc1 [Phenformin] (partner 250 µM)
Summed up: as §1

We go through seven cell lines from the supplement of paper PMC10307832.

Turning to HCC-78, the relative viability amounted to 0.868 in experiment [1] (first compound 0.04 µM); 0.866 in experiment [1] (first compound 0.1265 µM); 0.823 in experiment [1] (first compound 0.4 µM); 0.889 in experiment [1] (first compound 1.265 µM); 0.937 in experiment [1] (first compound 4 µM); 0.618 in experiment [2] (first compound 0.04 µM). In addition, the relative viability in experiment [2] (first compound 0.1265 µM) is 0.746; in experiment [2] (first compound 0.4 µM) it was 0.693; in experiment [2] (first compound 1.265 µM), 0.685; in experiment [2] (first compound 4 µM), 1.1; in experiment [3] (first compound 0.04 µM) it was 0.633; in experiment [3] (first compound 0.1265 µM) it was 0.66. For the same cell line, the relative viability in experiment [3] (first compound 0.4 µM) came out at 0.842; in experiment [3] (first compound 1.265 µM) it was 0.645; in experiment [3] (first compound 4 µM), 0.777; in experiment [4] (first compound 0.04 µM), 0.635; in experiment [4] (first compound 0.1265 µM), 0.604; in experiment [4] (first compound 0.4 µM), 0.694. For the same cell line, the relative viability was 0.746 in experiment [4] (first compound 1.265 µM) and 0.733 in experiment [4] (first compound 4 µM).
As for NCI-H2405, the relative viability in experiment [1] (first compound 0.04 µM) was 1.13; in experiment [1] (first compound 0.1265 µM), 0.945; in experiment [1] (first compound 0.4 µM), 1.03; in experiment [1] (first compound 1.265 µM) it was 1.07; in experiment [1] (first compound 4 µM), 0.973; in experiment [2] (first compound 0.04 µM) it was 0.978. Moreover, the relative viability was 0.832 in experiment [2] (first compound 0.1265 µM); 0.965 in experiment [2] (first compound 0.4 µM); 0.725 in experiment [2] (first compound 4 µM); 0.688 in experiment [3] (first compound 0.04 µM); 0.587 in experiment [3] (first compound 0.1265 µM); 0.744 in experiment [3] (first compound 0.4 µM). Also, the relative viability came out at 0.644 in experiment [3] (first compound 1.265 µM); 0.612 in experiment [3] (first compound 4 µM); 0.445 in experiment [4] (first compound 0.04 µM); 0.42 in experiment [4] (first compound 0.1265 µM); 0.44 in experiment [4] (first compound 0.4 µM); 0.289 in experiment [4] (first compound 1.265 µM). In addition, in experiment [4] (first compound 4 µM), the relative viability is 0.37.
For SK-LU-1, the relative viability in experiment [1] (first compound 0.04 µM) is 0.982; in experiment [1] (first compound 0.1265 µM) it was 0.935; in experiment [1] (first compound 0.4 µM), 1.03; in experiment [1] (first compound 1.265 µM), 0.872; in experiment [1] (first compound 4 µM), 0.901; in experiment [2] (first compound 0.04 µM) it was 0.867. The relative viability in experiment [2] (first compound 0.1265 µM) was determined as 0.768; in experiment [2] (first compound 0.4 µM), 0.824; in experiment [2] (first compound 1.265 µM), 1.01; in experiment [2] (first compound 4 µM), 0.744; in experiment [3] (first compound 0.04 µM), 0.594; in experiment [3] (first compound 0.1265 µM) it was 0.516. Moreover, the relative viability in experiment [3] (first compound 0.4 µM) was 0.477; in experiment [3] (first compound 1.265 µM) it was 0.378; in experiment [3] (first compound 4 µM) it was 0.464; in experiment [4] (first compound 0.04 µM), 0.538; in experiment [4] (first compound 0.1265 µM) it was 0.36; in experiment [4] (first compound 0.4 µM), 0.52. In addition, the relative viability was 0.575 in experiment [4] (first compound 1.265 µM) and 0.587 in experiment [4] (first compound 4 µM).
On to EMC-BAC-2, for which the relative viability amounted to 0.454 in experiment [1] (first compound 0.04 µM); 0.421 in experiment [1] (first compound 0.1265 µM); 0.491 in experiment [1] (first compound 0.4 µM); 0.439 in experiment [1] (first compound 1.265 µM); 0.432 in experiment [1] (first compound 4 µM); 1.09 in experiment [2] (first compound 0.04 µM). The relative viability in experiment [2] (first compound 0.1265 µM) is 1.09; in experiment [2] (first compound 0.4 µM) it was 1.12; in experiment [2] (first compound 1.265 µM) it was 1.13; in experiment [2] (first compound 4 µM), 1.2; in experiment [3] (first compound 0.04 µM) it was 0.759; in experiment [3] (first compound 0.1265 µM), 0.721. Also, the relative viability worked out at 0.889 in experiment [3] (first compound 0.4 µM); 0.924 in experiment [3] (first compound 1.265 µM); 0.99 in experiment [3] (first compound 4 µM); 0.549 in experiment [4] (first compound 0.04 µM); 0.48 in experiment [4] (first compound 0.1265 µM); 0.558 in experiment [4] (first compound 0.4 µM). In addition, the relative viability in experiment [4] (first compound 1.265 µM) amounted to 0.502; in experiment [4] (first compound 4 µM), 0.486.
Take NCI-H1650: the relative viability came out at 0.384 in experiment [1] (first compound 0.04 µM); 0.327 in experiment [1] (first compound 0.1265 µM); 0.331 in experiment [1] (first compound 0.4 µM); 0.36 in experiment [1] (first compound 1.265 µM); 0.358 in experiment [1] (first compound 4 µM); 1.12 in experiment [2] (first compound 0.04 µM). In addition, the relative viability in experiment [2] (first compound 0.1265 µM) amounted to 0.783; in experiment [2] (first compound 0.4 µM), 1.14; in experiment [2] (first compound 1.265 µM) it was 1.4; in experiment [2] (first compound 4 µM), 1.18; in experiment [3] (first compound 0.04 µM), 0.521; in experiment [3] (first compound 0.1265 µM), 0.568. The relative viability in experiment [3] (first compound 0.4 µM) amounted to 0.515; in experiment [3] (first compound 1.265 µM) it was 0.515; in experiment [3] (first compound 4 µM) it was 0.568; in experiment [4] (first compound 0.4 µM) it was 0.478; in experiment [4] (first compound 1.265 µM), 0.435; in experiment [4] (first compound 4 µM), 0.39.
For the cell line NCI-H596, the relative viability in experiment [1] (first compound 0.04 µM) is 0.554; in experiment [1] (first compound 0.1265 µM) it was 0.513; in experiment [1] (first compound 0.4 µM) it was 0.447; in experiment [1] (first compound 1.265 µM), 0.575; in experiment [1] (first compound 4 µM) it was 0.468; in experiment [2] (first compound 0.04 µM), 1.1. The relative viability in experiment [2] (first compound 0.1265 µM) is 0.892; in experiment [2] (first compound 0.4 µM) it was 1.08; in experiment [2] (first compound 1.265 µM) it was 0.812; in experiment [2] (first compound 4 µM), 0.888; in experiment [3] (first compound 0.04 µM), 0.796; in experiment [3] (first compound 0.1265 µM) it was 0.658. In addition, the relative viability in experiment [3] (first compound 0.4 µM) amounted to 0.812; in experiment [3] (first compound 1.265 µM), 0.738; in experiment [3] (first compound 4 µM), 0.857; in experiment [4] (first compound 0.04 µM) it was 0.75; in experiment [4] (first compound 0.1265 µM), 0.523; in experiment [4] (first compound 0.4 µM), 0.753. Besides, the values for the relative viability in experiment [4] (first compound 1.265 µM) and in experiment [4] (first compound 4 µM) were 0.571 and 0.813, respectively.
For the cell line LCLC-97TM1, the relative viability in experiment [1] (first compound 0.04 µM) turned out to be 0.205; in experiment [1] (first compound 0.1265 µM), 0.15; in experiment [1] (first compound 0.4 µM), 0.169; in experiment [1] (first compound 1.265 µM), 0.185; in experiment [1] (first compound 4 µM), 0.15; in experiment [2] (first compound 0.04 µM), 0.414. Also, the relative viability in experiment [2] (first compound 0.4 µM) stood at 0.342; in experiment [2] (first compound 1.265 µM), 0.339; in experiment [2] (first compound 4 µM), 0.503; in experiment [3] (first compound 0.04 µM) it was 0.2; in experiment [3] (first compound 0.1265 µM), 0.178; in experiment [3] (first compound 0.4 µM), 0.193. Besides, the relative viability in experiment [3] (first compound 1.265 µM) worked out at 0.183; in experiment [3] (first compound 4 µM) it was 0.236; in experiment [4] (first compound 0.04 µM) it was 0.424; in experiment [4] (first compound 0.1265 µM) it was 0.364; in experiment [4] (first compound 0.4 µM), 0.444; in experiment [4] (first compound 1.265 µM), 0.415. In experiment [4] (first compound 4 µM), the relative viability came to 0.414.
